Square brackets hold non-standard residues; d marks the D form. Peptide text beside a SMILES is read from it. d1Nal = N[C@H](Cc1cccc2ccccc12)C(=O)O; dNle = CCCC[C@@H](N)C(=O)O

One series concerns E. coli (ATCC 25922). The series is classed as cell-based, Escherichia coli. As to conditions: broth microdilution, MHB-II, ~5 × 10^5 CFU, 18–20 h at 37 °C, triplicate. As to the method: (§1) E. coli (ATCC 25922), S. aureus (ATCC 29213), P. aeruginosa (ATCC 27853) and A. baumannii (ATCC 19606).
(§2) Antimicrobial susceptibility testing was performed by broth dilution in MHB-II media using a protocol adapted from, with minor modifications. Briefly, the compounds were prepared in standard stocks of 1 mg/mL in milli-Q H2O. Antimicrobial dilutions were prepared in two times the final concentration (128 µg/mL) of the compounds. Bacterial suspensions were prepared from overnight cultures (MHB-II) by diluting to OD600 = 0.001 (Approximately 1 × 10^6 CFU). An amount of 100 µL MHB-II was transferred to all wells in column 1–9, excluding the antibiotics well (A1–A9). An amount of 200 µL of MHB-II was transferred to all wells in column 10–12. An amount of 200 µL peptide stock was transferred to each well from A1–9. A 2-fold serial dilution from row A–G was obtained by transferring 100 µL from row A to B, and continued until row G. Resulting in final concentration range of peptides: 128, 64, 32, 16, 8, 4, and 2 (µg/mL). Finally, 100 µL bacterial suspension (1 × 10^6 CFU) were added to all wells giving a final bacterial inoculum of approximately 5 × 10^5 colony forming units (CFU). The plates were incubated for 18–20 h at 37 °C.

The test system of the next series is S. aureus (ATCC 29213). Type of series: cell-based, Staphylococcus aureus. As to conditions: broth microdilution, MHB-II, ~5 × 10^5 CFU, 18–20 h at 37 °C, triplicate. As to the method: as §1, §2
For orientation: Dilution methods test growth across graded concentrations, often in twofold steps.

The subject of series [1] is P. aeruginosa (ATCC 27853). The series is classed as cell-based, Pseudomonas aeruginosa. As to conditions: broth microdilution, MHB-II, ~5 × 10^5 CFU, 18–20 h at 37 °C, triplicate. The protocol: as §1, §2
Series [2] has as its system A. baumannii (ATCC 19606). Type of series: cell-based, Acinetobacter baumannii. As to conditions: broth microdilution, MHB-II, ~5 × 10^5 CFU, 18–20 h at 37 °C, triplicate. The protocol:
as §1, §2

A further series has as its system human red blood cells. The series can be described thus: Hemolytic activity. The series is classed as cell-based. As to the method: The percentage of hemolysis at 150 μM was determined for all compounds as previously described. Briefly, two-fold serial dilutions (2.35 to 150 μM) of compounds in PBS were mixed with a 0.5% v/v suspension of fresh human red blood cells (RBC) in the same buffer. After 1 h incubation at 37 °C, plates were centrifuged and aliquots of the supernatants were transferred to clear ELISA plates. Absorbance at 414 nm was determined and normalised with respect to a negative (PBS, 0%) and positive (melittin, 100%) control.

A further series relates to E. coli 25922. Nature of the series: Time-kill kinetics, E. coli. Type of series: cell-based, Escherichia coli. The settings on record: 5 × MIC, exponentially growing cells 1 × 10^8, E. coli 25922. As to the method: (§3) The time kill experiments were performed by treating exponentially growing cultures with D2D and compound 5. Overnight cultures grown in MHB-II media, were diluted 1:10.000 to ensure exponentially growing cultures (8–10 generations), before cultures reached 1 × 10^8 CFU approximately OD600 = 0.1. When cultures reached 1 × 10^8 they were split into blood glass tubes containing 3 mL each and then treated with the respective drugs at the concentrations as shown in Figure 3. Sampling was performed at 0, 1, 3, 5 and 24 h, by removing 250 µL culture. Samples were spun down at 4000 G for 5 min and supernatant removed, cells were washed in 1 mL 0.9% NaCl, spun down again, before being suspended in 250 µL 0.9% NaCl. Finally, 10 fold dilution series were prepared in 0.9% NaCl. From these 10 µL were spotted (in triplicate) onto LB agar. CFU were counted after 24 h incubation at 37 °C. Experiments were performed in triplicate from individual colonies. Data analysis was performed using GraphPad prism 5 and plotted as the mean of triplicated with standard deviation.

The subject of a further series is A. baumannii 19606. The series can be described thus: Time-kill kinetics, A. baumannii. The series is classed as cell-based, Acinetobacter baumannii. As to conditions: 5 × MIC, exponentially growing cells 1 × 10^8, A. baumannii 19606. The protocol: as §3
In the next series the test system is S. aureus 29213. The series can be described thus: Time-kill kinetics, S. aureus. The series is classed as cell-based, Staphylococcus aureus. The settings on record: for reduction in viable cells: 5 × MIC, exponentially growing cells 1 × 10^8, S. aureus 29213. The protocol:
as §3

The nature of series [3]: Peptide self-assembly nanostructure in solution by SAXS. On outer radius of hollow nano-tubes: values in Å. On shell thickness of hollow nano-tubes: values in Å. Type of series: physicochemical. As to conditions: for nanostructure in solution (self-assembly, SAXS model): lab SAXS, 50 mM Tris buffer pH 7.4, 2.5–10 mg/mL, ambient temperature. The protocol: SAXS experiments of D2D and the alanine-scan (compounds 1–8) were performed using a Bruker NANOSTAR equipped with a microfocus X-ray source (IμS Cu, InCoatec, Germany) and a VÅNTEC-2000 detector. Raw scattering data was calibrated to absolute intensity scale using water as a primary standard and radially averaged in order to obtain the 1D scattered intensity profile as a function of the scattering vector q (q = 4 π sin (θ/2)/λ), where θ is the scattering angle and λ is the X-ray wavelength of 1.54 Å. The samples were dissolved in 50 mM Tris buffer, pH 7.4 (10 mg/mL, 5 mg/mL and 2.5 mg/mL) and injected manually into a temperature-controlled quartz cell located in a vacuum chamber and measured for 180 min.
The scattering of the peptide D2D was analysed using a random polymer-like chain model:(1) Ichain(q)=ϕ·Vp·Δρ^2·Pchain(q) where ϕ is the volume fraction of the peptide, Vp is the volume of the polymer, Δρ is the excess scattering length density and Pchain(q) is the form factor of the free peptide chains given by the Debye expression for Gaussian chains:(2) gPchain(q)=2·exp[−(qRg)^2]−1+(qRg)^2/(qRg)^4 where Rg is the radius gyration of the peptide chains.
The scattering for compounds 2 and 7 was analysed using a rectangular sheet like model:(3) Isheet(q)=ϕ·Vp·Δρ^2·Np·Psheet(q)
Under the assumption that the length of the peptide sheets are much greater than the lateral dimension, i.e., c >> a, b, the form factor Psheet(q) is given by (4) Psheet(q)=Fc(q)1/2π∫02πAsheet(q, α)^2dα where the amplitude is given by (5) Asheet(q,α)=sin(qb cos(α)/2)/qb cos(α)/2· sin(qa sin(α)/2) /qa sin(α)/2) and (6) Fc(q)=(2 Si(qc)/(qc)−4 sin^2(qc/2)/(qc)^2 where Si(x)=∫0xt^−1sint dt .
The expression for the absolute scattering intensity, from this structure can be written as:(7) Inanotube(q)=ϕ·P·Vtot·Δρ^2·P(q)L·A(q)cs2·DW(q) where ϕ is the volume fraction of the peptide, P is the aggregation number given by P π(Ro2−Ri2)L/Vp where Vp is the volume of a peptide chain, Ro is the outer radius and Ri is the inner radius of the tubes, and L is the length. A(q)cs2 is given by:(8) A(q)cs2=Ro2A(q,Rc)−Rin2A(q,Ri)/(Ro2−Ri2) where A(q,x)=2J1(q·x)/(q·x) and J1(x) is the first order Bessel function.
The longitudinal form factor P(q)L is given by:(9) P(q)L=2 Si(QL)/QL −4 sin(sin^2(QL/2)/(QL)^2 where L is the length of the nanotubes and Si(x) is the Sine-function.
In addition, we introduced a slight distribution in the inner radius for possible shape fluctuations, and a Debye Waller factor, DW(q) = exp(−q^2 σ^2), describing possible surface roughness of the inner and outer wall.

Series [4] in a line: Lipid-peptide interaction by synchrotron SAXS. As to conditions: SAXS fit parameter, fit error < 5%. The source says: For preparation of unilamellar lipid vesicles, synthetic DMPC (1,2-dimyristoyl-sn-glycero-3-phosphocholine), DMPG (1,2-dimyristoyl-sn-glycero-3-phospho-(10-rac-glycerol)), and DMPE-PEG (1,2-dimyristoyl-sn-glycero-3-phosphoethanolamine-N-[methoxy(polyethylene glycol)-2000]) (from Avanti Polar Lipids) were used in the molar ratio 9:7.5:2.5. The lipids were first dissolved in a 1:3 methanol:chloroform solution, and then the organic solvents were removed completely under vacuum using a Heidolph rotary evaporator with a Vacuubrand vacuum pump. The resulting lipid film was hydrated with 50 mM Tris buffer, pH 7.4, for at least one hour at 35 °C. After sonication for 10 min, the lipid dispersions were extruded through a 100 nm pore diameter polycarbonate filter (21 times) using an Avanti mini-extruder fitted with two 1 mL airtight syringes. Immediately before the SAXS experiment, a peptide solution with the adequate concentration for the target lipid:peptide ratio was mixed 1:1 with the lipid solution (1:1) using a micropipette.
SAXS experiments of the peptide-lipid mixes were performed at the automated BM29 bioSAXS beamline at the European Synchrotron Radiation Facility (ESRF) in Grenoble, France. The data was obtained using an energy of 12.5 keV and a detector distance of 2.87 m, covering a q range of about 0.0047 Å^−1 to 0.5 Å^−1. The data set was calibrated to an absolute intensity scale using water as a primary standard. 40 µL samples were run through a capillary using the flow mode of the automated sample changer. SAXS data was collected in ten successive frames of 0.5 s each to monitor radiation damage and the data reduction was done using the standard tool at BM29 [37].
The SAXS results of the lipid-peptide mixes were analysed using the theoretical model described in detail in [29]. In short, the model provides a detailed description of the membrane by dividing into probability functions for each component (lipid sub-units/peptide) across the bilayer.

The next series deals with S. aureus. As to conditions: cited from earlier work. The source says:
(§4) In the present study, we investigated all-D-peptides. […] For example, Mana ...

A further series has as its system P. aeruginosa 27853. The series can be described thus: Time-kill kinetics, P. aeruginosa. The series is classed as cell-based, Pseudomonas aeruginosa. As to conditions: 5 × MIC, exponentially growing cells 1 × 10^8, P. aeruginosa 27853. The protocol:
as §3

The conditions of series [5]: cited from earlier work.
From the text: as §4

Setting [6] is: SAXS nanotube model fit, 50 mM Tris pH 7.4, 2.5–10 mg/mL.
[7] abbreviates: fraction peptide 1:10 (peptide 5: joint SAXS/SANS fit).

Regarding `CCCC[C@@H](NC(=O)[C@@H](CCCCN)NC(=O)[C@@H](Cc1cccc2ccccc12)NC(=O)[C@@H](CCCCN)NC(=O)[C@H](N)Cc1ccccc1)C(N)=O` [Compound 29, fk(1-nal)k(nle)-NH2] (HELM PEPTIDE1{[dF].[dK].[O=C([C@@H](Cc1cccc2ccccc12)N[*:1])[*:2]].[dK].[CCCC[C@@H](N[*:1])C(=O)[*:2]].[am]}$$$$V2.0; N-terminus assumed), the “Minimum Inhibitory Concentration E.C.” value in the series on E. coli (ATCC 25922) was above 128 µg/mL. Moreover, the “Minimum Inhibitory Concentration S.A.” value with S. aureus (ATCC 29213) is given as above 128 µg/mL. Also, the “Minimum Inhibitory Concentration P.A.” value in [1] was determined as 128 µg/mL. For the same molecule, the “Minimum Inhibitory Concentration A.B.” value in [2] is recorded as above 128 µg/mL. Also, in the series with human red blood cells (150 µM in PBS, 0.5% v/v fresh human RBC, 1 h at 37 °C, absorbance 414 nm, normalised to PBS (0%) and melittin (100%)), the “%H (% Hemolysis at 150 µM)” value is on record as 12%.
For `CCCC[C@@H](NC(=O)[C@@H](CCCCN)NC(=O)[C@@H](Cc1cccc2ccccc12)NC(=O)[C@@H](C)NC(=O)[C@@H](Cc1ccccc1)NC(=O)[C@@H](Cc1cccc2ccccc12)NC(=O)[C@@H](CCCCN)NC(=O)[C@H](N)CCCCN)C(N)=O` [Compound 5, kk(1-nal)fa(1-nal)k(nle)-NH2] (H-[dK][dK][d1Nal][dF][dA][d1Nal][dK][dNle]-NH2), the “%H (% Hemolysis at 150 µM)” value with human red blood cells (red cells of human, 1 h, 150) is recorded as 47%. Besides, the “reduction in number of viable cells” value in the series with E. coli 25922 and in the series on A. baumannii 19606 was 4–5 logs throughout. Also, the “reduction in viable cells” value in the series on S. aureus 29213 turned out to be 5 log. Further, the “reduction in CFU/mL” value with S. aureus 29213 (S. aureus, concentration not stated (conclusions)) is above 3 log. In addition, the “outer radius of hollow nano-tubes” value in series [3] (setting [6]) amounted to 33 Å. Besides, in [3] (setting [6]), the “shell thickness of hollow nano-tubes” value turned out to be 4 Å. In addition, the “nanostructure in solution (self-assembly, SAXS model)” value in series [3] was “hollow nano-tubes”. In addition, the ffree peptide in series [4] (fraction peptide 1:5) worked out at 0.4; in series [4] (setting [7]), 0.5; in [4] (fraction peptide 1:20) it was 0.5.
Turning to “KLKLLLLLKLK-NH2 [sapesin B analog (L-form), literature peptide of Manabe et al]”, the “antimicrobial activity against S. aureus” value with S. aureus is 16 µg/mL.
For `CCCC[C@@H](NC(=O)[C@@H](CCCCN)NC(=O)[C@@H](Cc1cccc2ccccc12)NC(=O)[C@@H](CCCCN)NC(=O)[C@@H](Cc1ccccc1)NC(=O)[C@@H](Cc1cccc2ccccc12)NC(=O)[C@@H](CCCCN)NC(=O)[C@H](N)CCCCN)C(N)=O` [Compound D2D, kk(1-nal)fk(1-nal)k(nle)-NH2] (H-[dK][dK][d1Nal][dF][dK][d1Nal][dK][dNle]-NH2), in the series on human red blood cells (red cells of human, 1 h, 150), the “%H (% Hemolysis at 150 µM)” value is on record as 23%. Moreover, the “reduction in number of viable cells” value in the series with E. coli 25922 and with A. baumannii 19606 was 4–5 logs each time. For the same molecule, in the series on P. aeruginosa 27853, the “killing of viable cells” value is listed as 1 log. Also, the “reduction in viable cells” value in the series with S. aureus 29213 amounted to 5 log. Moreover, the “nanostructure in solution (self-assembly, SAXS model)” value in series [3] is “random unstructured polymer-like chains”. In addition, the ffree peptide was 0.7 in series [4] (fraction peptide 1:5), 0.51 in series [4] (setting [7]) and 0.5 in series [4] (fraction peptide 1:20). For the same molecule, in series [5], the “activity relative to its L-enantiomer (more active)” value is recorded as “approximately four-fold”.

These data come from PMC6943423, “Structure-Activity Study of an All-D Antimicrobial Octapeptide D2D” (Molecules, 2019).
